Assay results from patent US10072016B2, “Substituted 4-phenylpiperidines, their preparation and use” (The Trustees of Columbia University in the City of New York, priority 2014, dated 2018).

How the values were obtained:
[1] = target: T1, RBP4 (Homo sapiens (Human), UniProt P02753); test: Scintillation proximity (SPA) RBP4 binding assay; conditions: 10 nM 3H-Retinol, 50 nM biotinylated RBP4
Procedure: Scintillation Proximity RBP4 Binding Assay
Untagged human RBP4 purified from urine of tubular proteinuria patients was purchased from Fitzgerald Industries International. It was biotinylated using the EZ-Link Sulfo-NHS-LC-Biotinylation kit from Pierce following the manufacturer's recommendations. Binding experiments were performed in 96-well plates (OptiPlate, PerkinElmer) in a final assay volume of 100 μl per well in SPA buffer (1×PBS, pH 7.4, 1 mM EDTA, 0.1% BSA, 0.5% CHAPS). The reaction mix contained 10 nM ^3H-Retinol (48.7 Ci/mmol; PerkinElmer), 0.3 mg/well Streptavidin-PVT beads, 50 nM biotinylated RBP4 and a test compound. Nonspecific binding was determined in the presence of 20 μM of unlabeled retinol. The reaction mix was assembled in the dark under dim red light. The plates were sealed with clear tape (TopSeal-A: 96-well microplate, PerkinElmer), wrapped in the aluminum foil, and allowed to equilibrate 6 hours at room temperature followed by overnight incubation at +4° C. Radiocounts were measured using a TopCount NXT counter (Packard Instrument Company).

[2] = target: T2, RBP4-TTR interaction (Homo sapiens (Human), UniProt P02753); test: TR-FRET (HTRF) assay for retinol-induced RBP4-TTR interaction; format: biochemical; conditions: in the presence of 1 μM retinol; read-out: HTRF assay for antagonists of RBP4-TTR interaction: IC50
Excerpt: Binding of a desired RBP4 antagonist displaces retinol and induces hindrance for RBP4-TTR interaction resulting in the decreased FRET signal (FIG. 7). Bacterially expressed MBP-RBP4 and untagged TTR were used in this assay. […] Following cell lysis, recombinant RBP4 was purified from the soluble fraction using the ACTA FPLC system (GE Healthcare) equipped with the 5-ml the MBP Trap HP column. Human untagged TTR was purchased from Calbiochem. Untagged TTR was labeled directly with Eu^3+ Cryptate-NHS using the HTRF Cryptate Labeling kit from CisBio following the manufacturer's recommendations. HTRF assay was performed in white low volume 384 well plates (Greiner-Bio) in a final assay volume of 16 μl per well. The reaction buffer contained 10 mM Tris-HCl pH 7.5, 1 mM DTT, 0.05% NP-40, 0.05% Prionex, 6% glycerol, and 400 mM KF. […] Titration of test compounds in this assay was conducted in the presence of 1 μM retinol. All reactions were assembled in the dark under dim red light and incubated overnight at +4° C. wrapped in aluminum foil. TR-FRET signal was measured in the SpectraMax M5e Multimode Plate Reader (Molecular Device). […] The TR-FRET signal was expressed as the ratio of fluorescence intensity: Flu665/Flu620×10,000.

[3] = target: T1, RBP4; conditions: cited from earlier work
[4] = target: T2, RBP4-TTR interaction; conditions: cited from earlier work
[5] = target: serum RBP4 and retinol (Rattus norvegicus (Rat), UniProt P04916); conditions: in vivo; cited from earlier work
[6] = tested on: ocular all-trans retinol uptake; conditions: in vivo; cited from earlier work
[7] = tested on: Abca4−/− mice; conditions: animal model of excessive bisretinoid accumulation; cited from earlier work
[8] = tested on: many cell types, including the retinal pigment epithelium cells; conditions: cited from earlier work
[9] = in vivo; cited from earlier work

Compound | IC50 [1] [nM] | IC50 [2] [nM] | binding to RBP4 [3] | displacement of all-trans retinol from RBP4 [3] | disruption of RBP4-TTR interaction [4] | serum RBP4 and retinol [5] | ocular all-trans retinol uptake and visual cycle [6] | A2E production [7] | induction of apoptosis [8] | teratogenicity [9]
COCCN1CCc2c(C(=O)N3CCC(c4cccc(F)c4C(F)(F)F)CC3)n[nH]c2C1 [Compound 73] | 8.5 | 30.6 |  |  |  |  |  |  |  | 
CC1=C(/C=C/C(C)=C/C=C/C(C)=C/C(=O)Nc2ccc(O)cc2)C(C)(C)CCC1 [fenretinide, N-(4-hydroxy-phenyl)retinamide] |  |  | bind to RBP4 | displace all-trans retinol from RBP4 | disrupt the RBP4-TTR interaction | reduce serum RBP4 and retinol | inhibit ocular all-trans retinol uptake and slow down the visual cycle | reduced A2E production | extremely active inducer of apoptosis | teratogenic
